Data on ten compounds can be found in publication PMC10987541, “Characterization of a putative orexin receptor in Ciona intestinalis sheds light on the evolution of the orexin/hypocretin system in chordates” (Scientific Reports, 2024).

No end group written: not given here.

In experiment [1] the target is T1, CiOX (Ciona intestinalis, UniProt F6YII5).
T1 sequence (F6YII5 1-372): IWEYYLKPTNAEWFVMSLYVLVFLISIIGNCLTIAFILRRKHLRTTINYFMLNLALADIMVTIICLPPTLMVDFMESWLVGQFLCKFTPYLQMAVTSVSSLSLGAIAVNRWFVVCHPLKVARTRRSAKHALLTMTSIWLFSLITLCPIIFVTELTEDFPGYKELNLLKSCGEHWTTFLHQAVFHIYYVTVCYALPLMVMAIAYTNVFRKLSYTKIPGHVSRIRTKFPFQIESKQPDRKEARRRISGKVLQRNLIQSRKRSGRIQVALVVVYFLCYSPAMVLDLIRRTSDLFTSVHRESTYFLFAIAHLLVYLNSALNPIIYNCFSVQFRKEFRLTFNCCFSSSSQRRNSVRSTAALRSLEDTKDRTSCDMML
The experiment is classed as cell-based. To be noted: CiOX-eGFP-expressing Flp-In T-REx 293 cells.
Experimental: (§3) The Flp-In T-REx 293 human cell line (Thermofisher Scientific, Waltham, MA, USA), based on HEK293 cells, was cultured at 37 °C in 5% CO2 in an air‐ventilated humidified incubator according to manufacturer’s protocol, in high glucose Dulbecco’s Modified Eagle Medium (Biowest, Nuaillé, France) supplemented with 10% FBS, 1% Glutamax (Gibco), 10 mM HEPES (VWR LifeScience, Radnor, PA, USA), 100 U/mL penicillin G (Sigma Chemical Co., St. Louis, MO, USA), 80 U/mL streptomycin (Sigma), blasticidin (15 µg/mL) (InvivoGen, San Diego, CA, USA). The host cell line was maintained with zeocin (100 µg/mL) (InvitroGen, Carlsbad, CA, USA) and the transfected cell lines with hygromycin B (100 µg/mL) (InvitroGen). The experimental medium, the HEPES-buffered medium, (HBM: 137 mM NaCl, 5 mM KCl, 1.2 mM MgCl2, 0.44 mM KH2PO4, 4.2 mM NaHCO3, 1 mM CaCl2, 10 mM glucose, 20 mM HEPES, adjusted to pH 7.4 with NaOH), was used in all laboratory experiments. For the calcium elevation assay, HBM was supplemented with 1 mM probenecid [4-(dipropylsulfamoyl)benzoic acid] (Sigma) and 0.2% lipid-free bovine serum album.
(§4) Calcium measurements were performed in triplicate or quadruplicate. […] Non-linear curve-fitting were conducted with Prism 5 (GraphPad Software Inc., La Jolla, CA, USA) using the following equation: Y=basal+responsemax-basal/1+10^logEC50-X

The subject of experiment [2] is wild-type Flp-In T-REx 293 cells. The experiment in a line: Calcium elevation assay in wild-type Flp-In T-REx 293 cells. The experiment is classed as cell-based, human. To be noted: for Ca2+ elevation in wild-type cells: wild-type Flp-In T-REx 293 cells, concentration-response, N = 3.
Experimental: as §3, §4
Experiment [3] concerns CiOX. The experiment is classed as cell-based. To be noted: 100 µM.
Experimental: as §3, §4
For experiment [4], the system named is allatotropin receptor of Tribolium castaneum. To be noted: cited from earlier work. The source says:
The data presented in this study strongly support the notion that this orphan C. intestinalis receptor, here called CiOX, is an orexin-like receptor. Despite the sequence divergence, the (proposed) binding cavity of hOX2 and CiOX are highly similar.

Experiment [5] deals with CiOX. As to the kind of experiment: Inhibition of human orexin peptide-mediated Ca2+ responses in CiOX-expressing cells. To be noted: agonist orexin-A and -B 1 µM; inhibitor 1 µM added 30 min before; mean ± S.E.M., N = 3-4. It is filed as cell-based, Ciona intestinalis. The method, then: Figure 7 The sensitivity of the human endogenous orexin peptide (1 µM) -mediated Ca^2+ responses to inhibitors (1 µM) in CiOX-expressing cells. The responses were normalized to the basal + inhibitor (0%) and the control agonist peptide response (in the absence of inhibitor; 100%) separately for each independent experiment before averaging. Data presented as mean ± S.E.M. N = 3–4. The significances are given in relation to the agonist control.
Intracellular calcium elevation is the apparent response upon orexin receptor activation in many cell types. The calcium elevation assay was conducted as previously described. Cells, 1 × 10^5 per well, were plated on polyethyleneimine (25 μg/mL, 1 h, 37 °C)-coated black, clear-bottom, half-area 96-well plates (Greiner). After 24 h, 100 ng/mL doxycycline was added onto the cells and incubated for another 24 h before loading the cells with FLIPR Calcium 5 Assay Kit (Molecular Devices, Sunnyvale, CA, USA) dissolved in and diluted with HBM and supplemented as described above. Cells were incubated for 1 h with the loading dye, before running the assay in FlexStation 3 fluorescence plate reader (Molecular Devices). Inhibitors were added manually at the midpoint of the probe incubation (30 min). Intracellular Ca^2+ levels were measured as fluorescent changes for 150 s (of which 30 s baseline prior to stimulation) with excitation at 485 nm, emission at 525 nm (recording every 1.3 s) at 37 °C.
The data were normalized in each experiment to the control response and then averaged between experiments by calculation of mean ± S.E.M. The N denotes the number of independent experiments and was always at least 3. Paired two-tailed t-test was used for comparison. Significances were as follows: * P < 0.05, ** P < 0.01, *** P < 0.001.

The target of experiment [6] is Ciona intestinalis putative orexin receptor fused to eGFP (Ciona intestinalis).
For experiment [7], the target named is T1, CiOX. The experiment in a line: Binding of TAMRA-orexin-A (fluorescence microscopy) in CiOX-eGFP-expressing cells. To be noted: 30 nM. The method, then:
(§1) We have previously observed that the N-terminus of orexin-A can tolerate additions without apparent loss of activity on orexin receptors (Kukkonen, unpublished) and it has been reported that fluorescently labelled orexin-A can be used as probe for hOX1/2[56].
(§2) The cells were seeded on polyethyleneimine-coated 25 mm circular glass coverslips (Menzel-Gläser, Braunschweig, Germany). Twenty-four hours after seeding, cells were treated with doxycycline (100 ng/mL) and incubated for another 24 h. Then, the coverslip was washed once with HBM, before mounting in the microfluorometric experiment chamber. The imaging system, composed of the Sutter Lambda DG-4 xenon light source/filter shifter (Sutter Instrument Company, Novato, CA, USA), Nikon TE2000 epifluorescence microscope (Nikon, Tokyo, Japan), Nikon Apo TIRF 60×/1.49 oil immersion objective and Andor iXon 885 electron-multiplying charge-coupled device camera (Oxford Instruments, Abingdon, Oxfordshire, UK), was under the control of the Nikon NIS Elements AR software. Images were alternately acquired at 480/30 nm excitation/510 nm dichroic mirror/535/40 nm emission for eGFP fluorescence and at 540/25 nm excitation/565 nm dichroic mirror/605/55 nm emission for TAMRA fluorescence. A pair of images was acquired once per minute or once per every five minutes depending on the incubation time; i.e., for a longer incubation 5 min was used to avoid potential bleaching. All the additions were made by direct pipetting into the chamber. Experiments were carried out at room temperature. 30 nM TAMRA-orexin-A was used.

The test system of experiment [8] is wild-type Flp-In T-REx 293 cells. As to the kind of experiment: Binding of TAMRA-orexin-A (fluorescence microscopy) in wild-type Flp-In T-REx 293 cells. The arrangement: species or system human. To be noted: 30 nM; 10-minute incubation. The method, then: as §1
as §2, with “A pair of images was acquired once per minute or once per every five minutes depending on the incubation time; i.e., for a longer incubation 5 min was used to avoid potential bleaching. All the additions were made by direct pipetting into the chamber. Experiments were carried out at room temperature. 30 nM TAMRA-orexin-A was used.” left out

For experiment [9], the system named is hOX1. The experiment in a line: Binding of TAMRA-orexin-A (fluorescence microscopy) in hOX1-eGFP-expressing cells. The arrangement: species or system human. To be noted: 30 nM. The method, then:
as §1
as §2, with “A pair of images was acquired once per minute or once per every five minutes depending on the incubation time; i.e., for a longer incubation 5 min was used to avoid potential bleaching. All the additions were made by direct pipetting into the chamber. Experiments were carried out at room temperature. 30 nM TAMRA-orexin-A was used.” left out

Where [10] appears, read: room temperature, red fluorescence.

On to “M. sexta allatotropin: Manduca sexta allatotropin from Bachem (GFKNVEMMTARGF)”, for which the “Ca2+ elevation in CiOX receptor-expressing cells” value in experiment [1] was “induced no Ca^2+ elevation”. The “Ca2+ elevation in wild-type cells” value in experiment [2] is reported as “induced no Ca^2+ elevation”.

As for `Nc1ncnc2c1ncn2[C@@H]1O[C@H](COP(=O)(O)OP(=O)(O)OP(=O)(O)O)[C@@H](O)[C@H]1O` [ATP], the “Ca2+ response to positive control in CiOX-expressing cells” value in experiment [3] was “robust Ca^2+ response”. In addition, the “Ca2+ response to positive control in wild-type cells” value in [2] (100 µM) is “robust Ca^2+ response”.

Consider `CNC(=O)[C@@H](c1ccccc1)N1CCc2cc(OC)c(OC)cc2[C@@H]1CCc1ccc(C(F)(F)F)cc1` [almorexant, (2R)-2-[(1S)-6,7-dimethoxy-1-[2-[4-(trifluoromethyl)phenyl]ethyl]-3,4-dihydro-1H-isoquinolin-2-yl]-N-methyl-2-phenylacetamide], for which the “Inhibition of the allatotropin receptor of Tribolium castaneum” value in experiment [4] is on record as “not inhibited”. Besides, in experiment [5], the “Inhibition of Ca2+ responses to CiOX stimulation with orexin-A and -B” value (from here on “Inhibition of Ca2+ responses”) is “nearly fully blocked the response”.

In [6], human orexin-A (peptide) registered an EC50 of the Ca2+ elevation in CiOX-eGFP-expressing Flp-In T-REx 293 cells (CiOX-specific response, wild-type response subtracted) of 225 nM.

Regarding `Cc1nc2ccc(NC(=O)Nc3ccnc4cccnc34)cc2o1` [SB-334867], in experiment [5], the “Inhibition of Ca2+ responses” value is reported as “much weaker effect”.

Regarding `Cn1c(SCC(=O)N2CCC[C@H]2C(=O)Nc2ccccc2-c2ccccc2)nc2ccccc21` [TCS 1102, (2S)-1-[2-(1-methylbenzimidazol-2-yl)sulfanylacetyl]-N-(2-phenylphenyl)pyrrolidine-2-carboxamide], in experiment [5], the “Inhibition of Ca2+ responses” value is “nearly fully blocked the response”.

“TAMRA-orexin-A: 5-/6-carboxytetramethylrhodamine (TAMRA)-labelled human orexin-A, custom synthesis (QPLPDCCRQKTCSCRLYELLHGAGNHAAGILTL; ends and bridges not checked; also: TAMRA label, place not given here; UniProt O43612 34-66, looked up)”: in experiment [7], the “Internalization (intracellular red fluorescence) in CiOX receptor-expressing cells” value was “did not observe this”. The “Time for which the bound fluorescence intensity remained stable in CiOX-eGFP-expressing cells” value in [7] (room temperature) is “at least 30 min”. In experiment [7] (setting [10]), the “Binding to the plasma membranes of CiOX-eGFP-expressing cells” value is “bound to the plasma membranes of the CiOX receptor-expressing cells”. Also, in experiment [8], the “Binding to wild-type Flp-In T-REx 293 cells” value is given as “did not bind”. The “Internalization (intracellular red fluorescence) in hOX1 receptor-expressing cells” value in experiment [9] is “intracellular red fluorescence suggesting internalization”. In [9] (setting [10]), the “Binding to the plasma membranes of hOX1-eGFP-expressing cells” value is given as “bound to the plasma membranes of OX1 cells quickly after the addition”.

Take “[(1R)-1-[(3S,6S,9S,12S,18R,21S,22R)-21-acetamido-18-benzyl-3-[(1R)-1-methoxyethyl]-4,9,10,12,16-pentamethyl-15-methylidene-2,5,8,11,14,17,20-heptaoxo-22-propan-2-yl-1,19-dioxa-4,7,10,13,16-pentazacyclodocos-6-yl]-2-methylpropyl] (2S,3R)-3-hydroxy-4-methyl-2-(propanoylamino)pentanoate [UBO-QIC]”: the “Inhibition of Ca2+ responses” value in experiment [5] is “nearly fully inhibited”.

Regarding `COc1ccc(-c2cccc(C(=O)N(C)C)c2)cc1S(=O)(=O)Nc1cccc(NCCNC(=O)c2cccc(C)c2)c1` [Nag 26, N-[2-[3-[[5-[3-(dimethylcarbamoyl)phenyl]-2-methoxyphenyl]sulfonylamino]anilino]ethyl]-3-methylbenzamide], the “Ca2+ elevation in CiOX receptor-expressing cells” value in experiment [1] is reported as “induced no Ca^2+ elevation”. The “Ca2+ elevation in wild-type cells” value in [2] is “induced no Ca^2+ elevation”.

With “orexin-A15–33: The 19-amino acid-long C-terminal fragment of orexin-A (RLYELLHGAGNHAAGILTL; ends and bridges not checked)”, in experiment [1] (doxycycline 100 ng/mL 24 h, 37 °C, mean ± S.E.M., N = 3), the “EC50 of Ca2+ elevation” value is “no saturation was reached”. Further, the “Ca2+ elevation in wild-type cells” value in [2] is recorded as “weakly elevated Ca^2+”.
